Results: patent US10570131B2, “Heterocyclic compounds and their use in preventing or treating bacterial infections” (MUTABILIS, priority 2015, dated 2020)
Counter-ions that a name gives are not always drawn.

Tests used:
Type in all cases: cell-based
E. cloacae 260508 = assay: MIC of compounds alone, broth microdilution; details: Enterobacter cloacae, 260508, read-out: MIC compounds of the invention alone
In short: (§1)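 Compounds tested alone or with ceftazidime by broth microdilution in cation-adjusted Mueller-Hinton broth, inoculum 5×10^5 cfu/mL from log-phase cultures. Plates incubated 16-20 h at 35° C in ambient air; MIC taken as lowest concentration preventing visible growth.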

E. cloacae UFR38 = assay: MIC of compounds alone, broth microdilution; details: Enterobacter cloacae; strain UFR38 (CTX-M-15, NDM-1); read-out: MIC compounds of the invention alone
In short: as §1

E. cloacae UFR70 = assay: MIC of compounds alone, broth microdilution; details: Enterobacter cloacae, UFR70, read-out: MIC compounds of the invention alone
In short: as §1

E. cloacae UFR85 = assay: MIC of compounds alone, broth microdilution; details: Enterobacter cloacae, UFR85, read-out: MIC compounds of the invention alone
In short: as §1

E. coli UFR18 = assay: MIC of compounds alone, broth microdilution; details: Escherichia coli; strain UFR18 (CTX-M-15, OXA-204); read-out: MIC compounds of the invention alone
In short: as §1

E. coli UFR32 = assay: MIC of compounds alone, broth microdilution; details: Escherichia coli, UFR32, read-out: MIC compounds of the invention alone
In short: as §1

E. coli UFR52 [1] = assay: MIC of compounds alone, broth microdilution; details: Escherichia coli, UFR52, read-out: MIC compounds of the invention alone
In short: as §1

E. coli UFR61O = assay: MIC of compounds alone, broth microdilution; details: Escherichia coli, UFR61O, read-out: MIC compounds of the invention alone
In short: as §1

E. coli UFR74 = assay: MIC of compounds alone, broth microdilution; details: Escherichia coli, UFR74, read-out: MIC compounds of the invention alone
In short: as §1

K. oxytoca UFR21 = assay: MIC of compounds alone, broth microdilution; details: Klebsiella oxytoca, UFR21, read-out: MIC compounds of the invention alone
In short: as §1

K. pneumoniae 160143 = assay: MIC of compounds alone, broth microdilution; details: Klebsiella pneumoniae, 160143, read-out: MIC compounds of the invention alone
In short: as §1

K. pneumoniae UFR24 = assay: MIC of compounds alone, broth microdilution; details: Klebsiella pneumoniae, UFR24, read-out: MIC compounds of the invention alone
In short: as §1

K. pneumoniae UFR68 = assay: MIC of compounds alone, broth microdilution; details: Klebsiella pneumoniae, UFR68, read-out: MIC compounds of the invention alone
In short: as §1

K. pneumoniae UFR77 = assay: MIC of compounds alone, broth microdilution; details: Klebsiella pneumoniae; strain UFR77 (CMY-2); read-out: MIC compounds of the invention alone
In short: as §1

P. aeruginosa UFR35 [2] = assay: MIC of compounds alone, broth microdilution; details: Pseudomonas aeruginosa; strain UFR35 (OXA-23); read-out: MIC compounds of the invention alone
In short: as §1

P. aeruginosa UFR47 = assay: MIC of compounds alone, broth microdilution; details: Pseudomonas aeruginosa; strain UFR47 (VIM-1); read-out: MIC compounds of the invention alone
In short: as §1

P. aeruginosa UFR48 [3] = assay: MIC of compounds alone, broth microdilution; details: Pseudomonas aeruginosa; strain UFR48 (VIM-2); read-out: MIC compounds of the invention alone
In short: as §1

P. aeruginosa UFR90 [4] = assay: MIC of compounds alone, broth microdilution; details: Pseudomonas aeruginosa, UFR90, read-out: MIC compounds of the invention alone
In short: as §1

P. aeruginosa UFR92 [5] = assay: MIC of compounds alone, broth microdilution; details: Pseudomonas aeruginosa, UFR92, read-out: MIC compounds of the invention alone
In short: as §1

P. aeruginosa UFR93 [6] = assay: MIC of compounds alone, broth microdilution; details: Pseudomonas aeruginosa, UFR93, read-out: MIC compounds of the invention alone
In short: as §1

P. aeruginosa UFR35 [7] = assay: MIC of ceftazidime alone and in combination with compounds (synergy), broth microdilution; details: MIC of ceftazidime with compound fixed at 4 μg/mL; strain UFR35 (OXA-23)
In short: as §1

P. aeruginosa UFR48 [8] = assay: as above; details: MIC of ceftazidime with compound fixed at 4 μg/mL; strain UFR48 (VIM-2)
In short: as §1

P. aeruginosa UFR90 [9] = assay: as above; details: MIC of ceftazidime with compound fixed at 4 μg/mL; strain UFR90 (derepressed AmpC, OprD−)
In short: as §1

P. aeruginosa UFR92 [10] = assay: as above; details: MIC of ceftazidime with compound fixed at 4 μg/mL; strain UFR92 (derepressed AmpC, OprD−)
In short: as §1

C. murliniae 210102 = assay: as above; details: MIC of ceftazidime with compound fixed at 4 μg/mL; strain 210102 (VIM-4)
E. coli UFR52 [11] = assay: as above; details: MIC of ceftazidime with compound fixed at 4 μg/mL; strain UFR52 (TEM-1, SHV-12, IMP-8)
P. aeruginosa UFR93 [12] = assay: as above; details: MIC of ceftazidime with compound fixed at 4 μg/mL; strain UFR93 (derepressed AmpC, OprD−, MexAB+, MexXY+)
P. aeruginosa UFR59 = assay: as above; details: MIC of ceftazidime with compound fixed at 4 μg/mL; strain UFR59 (IMP-29)

Row | Compound | MIC (E. cloacae 260508) | MIC (E. cloacae UFR38) | MIC (E. cloacae UFR70) | MIC (E. cloacae UFR85) | MIC (E. coli UFR18) | MIC (E. coli UFR32) | MIC (E. coli UFR52 [1]) | MIC (E. coli UFR61O) | MIC (E. coli UFR74) | MIC (K. oxytoca UFR21) | MIC (K. pneumoniae 160143) | MIC (K. pneumoniae UFR24) | MIC (K. pneumoniae UFR68) | MIC (K. pneumoniae UFR77) | MIC (P. aeruginosa UFR35 [2]) | MIC (P. aeruginosa UFR47) | MIC (P. aeruginosa UFR48 [3]) | MIC (P. aeruginosa UFR90 [4]) | MIC (P. aeruginosa UFR92 [5]) | MIC (P. aeruginosa UFR93 [6]) | further results
1 | NC[C@@H]1CC(=NOCC(N)=O)[C@@H]2CN1C(=O)N2OS(=O)(=O)O (mixture of isomers) [Example 5, sodium and 2,2,2-trifluroacetate [(2S,5S)-4-(2-amino-2-oxo-ethoxy)imino-2-(azaniumylmethyl)-7-oxo-1,6-diazabicyclo[3.2.1]octan-6-yl] sulfate] | 32 µg/mL | 0.125 µg/mL | > 32 µg/mL | > 32 µg/mL | 0.25 µg/mL | 1 µg/mL | 8 µg/mL | 0.5 µg/mL | > 32 µg/mL | > 32 µg/mL | > 32 µg/mL | > 32 µg/mL | > 32 µg/mL | > 32 µg/mL | 1 µg/mL | 2 µg/mL | 2 µg/mL | 1 µg/mL | 2 µg/mL | 4 µg/mL | MIC, combination of CAZ and compounds of the invention at 4 μg/mL (P. aeruginosa UFR35 [7]): <0.25 µg/mL; MIC, combination of CAZ and compounds of the invention at 4 μg/mL (P. aeruginosa UFR48 [8]): <0.25 µg/mL; MIC, combination of CAZ and compounds of the invention at 4 μg/mL (P. aeruginosa UFR90 [9]): <0.25 µg/mL; MIC, combination of CAZ and compounds of the invention at 4 μg/mL (P. aeruginosa UFR92 [10]): <0.25 µg/mL; MIC, combination of CAZ and compounds of the invention at 4 μg/mL (C. murliniae 210102): 1 µg/mL; MIC, combination of CAZ and compounds of the invention at 4 μg/mL (E. coli UFR52 [11]): ≤0.25 µg/mL; MIC, combination of CAZ and compounds of the invention at 4 μg/mL (P. aeruginosa UFR93 [12]): <0.25 µg/mL; MIC, combination of CAZ and compounds of the invention at 4 μg/mL (P. aeruginosa UFR59): <0.25 µg/mL
2 | NC[C@@H]1CC(=O)[C@@H]2CN1C(=O)N2OS(=O)(=O)O [Example 6, 2,2,2-trifluroacetate and sodium [(2S,5S)-2-(azaniumylmethyl)-4,7-dioxo-1,6-diazabicyclo[3.2.1]octan-6-yl] sulfate] | > 32 µg/mL | 0.5 µg/mL | > 32 µg/mL | > 32 µg/mL | 1 µg/mL | 1 µg/mL | 2 µg/mL | 4 µg/mL | > 32 µg/mL | > 32 µg/mL | > 32 µg/mL | > 32 µg/mL | > 32 µg/mL | > 32 µg/mL | 4 µg/mL | 4 µg/mL | 8 µg/mL | 4 µg/mL | 4 µg/mL | 8 µg/mL | MIC, combination of CAZ and compounds of the invention at 4 μg/mL (P. aeruginosa UFR35 [7]): <0.25 µg/mL; MIC, combination of CAZ and compounds of the invention at 4 μg/mL (P. aeruginosa UFR48 [8]): ≤0.25 µg/mL; MIC, combination of CAZ and compounds of the invention at 4 μg/mL (P. aeruginosa UFR90 [9]): <0.25 µg/mL; MIC, combination of CAZ and compounds of the invention at 4 μg/mL (P. aeruginosa UFR92 [10]): ≤0.25 µg/mL; MIC, combination of CAZ and compounds of the invention at 4 μg/mL (C. murliniae 210102): 4 µg/mL; MIC, combination of CAZ and compounds of the invention at 4 μg/mL (E. coli UFR52 [11]): <0.25 µg/mL; MIC, combination of CAZ and compounds of the invention at 4 μg/mL (P. aeruginosa UFR93 [12]): 0.5 µg/mL; MIC, combination of CAZ and compounds of the invention at 4 μg/mL (P. aeruginosa UFR59): ≤0.25 µg/mL
